Here are results for 8 compounds from US4785008A, “N-substituted 2-amino-thiazoles, process for their preparation and their therapeutic application” (Laboratoires Chauvin-Blache, priority 1985, dated 1988).

Each structure is given as a SMILES string.

In data set [1] the test system is lipoxygenase of circulating human leukocytes (PMNs). The data set can be described thus: Inhibition of the lipoxygenase of circulating human leukocytes (PMNs), by radioimmunoassay of LTC4. It counts as cell-based. To be noted: Leukocyte, 8 min, calcium ionophore A23187 (0.25 μM), 8 minutes at 37° C. As to the method:
1.1--Inhibition of the lipoxygenase of circulating human leukocytes (PMNs), by radioimmunoassay of LTC4 Methods Heparinized human blood is sedimented for 1 hour at 37° C. in sterile saline solution containing 4.5% of Dextran T 500. The upper, leukocyte-rich phase, is collected, deposited on Ficoll-Paque (7:3 v/v) and then centrifuged (20 minutes, 400×g, 4° C.). The centrifugation pellet is treated with 0.75% strength NH4 Cl to lyse the red cells. After centrifugation (20 minutes, 400×g, 4° C.), supernatent is removed and the pellet is resuspended in Dulbecco's PBS buffer containing 1 mM calcium chloride. […] The incubation is blocked by adding one volume of ice-cold water, and the suspension is centrifuged (15 minutes, 1500×g, 4° C.). Aliquots of the supernatent are then subjected to radioimmunoassay (New England Nuclear Kit). The percentage inhibition of the 5-lipoxygenase pathway is measured in terms of the concentration of each compound. From these curves, the concentration which 50% inhibits LTC4 tracer formation (IC50) is deduced.

Data set [2] deals with prostanoid pathways (thromboxane B2) in rabbit platelets. Put plainly: Inhibition of the metabolism of [14C]arachidonate in rabbit platelets (disappearance of TXB2). The conditions noted are these: Oryctolagus cuniculus, Platelet. It counts as cell-based. As to the method: 1.2--Inhibition of the metabolism of [^14 C]arachidonate in rabbit platelets
12 ml of blood are withdrawn nitracardially into ACD (anticoagulant consisting of an aqueous solution containing 0.27 g of citric acid, 0.5 g of disodium citrate and 0.02 g of glucose for 20 ml of water) in a proportion of 1 volume of ACD for 6 volumes of blood. The mixture is centrifuged (10 minutes, 200×g, 20° C.), and the supernatent (PRP) collected and centrifuged again (15 minutes, 1500×g, 20° C.). The platelet pellet is washed in buffer I [NaCl, 8 g/l; Tris, 1.21 g/l; KCl, 0.2 g/l; gelatin, 2.5 g/l; this mixture is heated to 90° C. to dissolve the gelatin, and then glucose, 1 g/l, and ethylene glycol bis(β-aminoethyl ether) N,N,N',N'-tetraacetic acid or EGTA, 0.075 g/l, are added]. The suspension is centrifuged (15 minutes, 1500×g, 20° C.) and the pellet taken up in buffer II (NaCl, 8 g/l; Tris, 1.21 g/l; KCl, 0.2 g/l; CaCl2, 0.145 g/l; MgCl2, 0.2 g/l; gelatin, 2.5 g/l; the mixture is brought to 90° C., glucose, 1 g/l, is added and the pH is adjusted to 7.4 with 0.1N HCl).
The platelet suspension (0.4 ml/tube) is preincubated for 10 minutes at 37° C., either with 10 μl of DMSO (control), or with varied concentrations of test compounds dissolved in 10 μl of DMSO.
The incubation is carried out in the presence of [^14 C]arachidonate (1 μg, 0.2 μCi) distributed in 0.1 ml of buffer II, and the incubation is then blocked after 15 minutes with 50 μl of citric acid and 250 μl of saturated NaCl.
After extraction with ethyl acetate, the metabolites of [^14 C]arachidonate are separated by thin layer chromatography and quantified using a radio-scanner.
The percentage inhibition of the prostanoid pathways is estimated by measuring the disappearance of thromboxane B2 (TXB2) in terms of the concentration of each compound.
Results corresponding to 50 μM and 100 μM of compounds of formula I are given by way of example in Table II.

In data set [3] the test system is protein influx into the anterior chamber of the eye. The data set can be described thus: Inhibition of protein influx into the anterior chamber of the eye after corneal paracentesis. The class given is in vivo, albino New Zealand rabbits. To be noted: rabbit eye. As to the method: Anti-inflammatory activity measured by the inhibition of protein influx into the anterior chamber of the eye after corneal paracentesis. […] The effect of various concentrations of each compound is measured on 6 eyes of albino New Zealand rabbits.

The nature of data set [4]: Acute toxicity (LD50) in rats. To be noted: rat, in vivo, 14 days of observation, with 5% confidence interval. As to the method: The rats used are of Wistar strain of average weight 150 g.
The LD50 is determined after 14 days of observation.
The results below give the LD50 values for the compound 3 of the invention, together with the 5% confidence interval.

The test system of data set [5] is leukocyte infiltration into the aqueous humour. To be noted: recent experimental studies; cited from earlier work.

The IC50 is the concentration needed to halve the response being measured. The inhibition is the drop in the measured response relative to a control, in per cent. Higher therefore signals strong suppression. On to `Oc1ccccc1Nc1nccs1` [Compound 1], for which the IC50 in data set [1] was 1200 nM. For the same compound, in data set [2], the inhibition at 50 µM was determined as 34% and the inhibition at 100 µM was 91%.
As to `Oc1ccc(Cl)cc1Nc1nccs1` [Compound 2], the IC50 in data set [1] was found to be 300 nM. In data set [2], this compound gave an inhibition at 50 µM of 100% and an inhibition at 100 µM of 100%.
By LD50 is commonly meant the dose expected to kill half of the subjects tested. Higher therefore signals lower toxicity. As to `Cc1ccc(Nc2nccs2)c(O)c1.Cl` [Compound 3, 2-(2-hydroxy-4-methylphenyl)aminothiazole hydrochloride], in data set [1], the IC50 came to 330 nM. Besides, the inhibition at 50 µM in data set [2] was determined as 100%. For the same compound, the inhibition at 100 µM in data set [2] amounted to 100%. For the same compound, the “Inhibition (%) of protein influx into the anterior chamber of the eye after corneal paracentesis” value in data set [3] (0.1 mg/100 ml) was found to be 20%; in data set [3] (0.5 mg/100 ml), 35%; in data set [3] (1 mg/100 ml) it was 50%. Also, the LD50 at 336 h in data set [4] (iv, female rat) was 51 ± 2 mg/kg; in data set [4] (iv, male rat), 51 ± 2 mg/kg; in data set [4] (po, female rat) it was 2350 ± 90 mg/kg; in data set [4] (po, male rat), 2950 ± 96 mg/kg.
Regarding `Cc1ccc(O)c(Nc2nccs2)c1` [Compound 4], the IC50 in data set [1] was 250 nM. For the same compound, in data set [2], the inhibition at 50 µM came to 68%.
For `CC(C)(C)c1ccc(Nc2nccs2)c(O)c1` [Compound 5] the same measures were 1600 nM and 76%.
In the case of `Cc1cc(C)c(O)c(Nc2nccs2)c1` [Compound 6], the IC50 in data set [1] turned out to be 200 nM. Also, the inhibition at 50 µM in data set [2] is 70%.
In data set [2], `Oc1cccnc1Nc1nccs1` [Compound 7] gave an inhibition at 50 µM of 36% and an inhibition at 100 µM of 36%.
As for `COc1ccc2c(c1)c(CC(=O)O)c(C)n2C(=O)c1ccc(Cl)cc1` [Indomethacin], the “leukocyte infiltration into the aqueous humour” value in data set [5] was “increases the leukocyte infiltration into the aqueous humour”.
